In PubChem BioAssay (NCI):
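Exposure lasted 48 hours, with cells grown in 96-well plates and compounds tested at five concentrations. TGI marks complete inhibition of growth.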

Assays:
Assay in all cases: DTP human tumour cell line panel, 48 h
[1] = test system: KM12 colon
[2] = test system: M19-MEL melanoma
[3] = test system: XF 498 CNS
[4] = test system: MALME-3M melanoma
[5] = test system: DLD-1 colon
[6] = test system: SR leukemia
[7] = test system: M14 melanoma
[8] = test system: OVCAR-5 ovarian
[9] = test system: KM20L2 colon
[10] = test system: ACHN renal
[11] = test system: CAKI-1 renal
[12] = test system: MOLT-4 leukemia
[13] = test system: SNB-19 CNS
[14] = test system: CCRF-CEM leukemia
[15] = test system: NCI-H226 lung
[16] = test system: A498 renal
[17] = test system: LXFL 529 NSCLC
[18] = test system: UACC-257 melanoma
[19] = test system: HCT-116 colon
[20] = test system: K-562 leukemia
[21] = test system: SK-MEL-5 melanoma
[22] = test system: NCI-H522 lung
[23] = test system: UO-31 renal
[24] = test system: RPMI-8226 leukemia
[25] = test system: HCC-2998 colon
[26] = test system: OVCAR-8 ovarian
[27] = test system: NCI-H460 lung
[28] = test system: SK-MEL-2 melanoma
[29] = test system: TK-10 renal
[30] = test system: SF-295 CNS
[31] = test system: DMS 273 small cell lung
[32] = test system: SF-268 CNS
[33] = test system: UACC-62 melanoma
[34] = test system: A549 NSCLC
[35] = test system: SNB-78 CNS
[36] = test system: NCI-H23 lung
[37] = test system: HOP-18 NSCLC
[38] = test system: SK-OV-3 ovarian
[39] = test system: SN12C renal
[40] = test system: HCT-15 colon
[41] = test system: IGROV1 ovarian
[42] = test system: COLO 205 colon
[43] = test system: SW-620 colon
[44] = test system: DMS 114 small cell lung
[45] = test system: HOP-62 NSCLC
[46] = test system: OVCAR-4 ovarian
[47] = test system: 786-0 renal
[48] = test system: HT29 colon
[49] = test system: RXF 393 renal
[50] = test system: HOP-92 NSCLC
[51] = test system: EKVX NSCLC
[52] = test system: SNB-75 CNS
[53] = test system: HL-60(TB) leukemia
[54] = test system: SF-539 CNS
[55] = test system: U251 CNS
[56] = test system: OVCAR-3 ovarian
[57] = test system: LOX IMVI melanoma
[58] = test system: SK-MEL-28 melanoma
[59] = test system: RXF-631 renal
[60] = test system: MDA-MB-435
[61] = test system: MDA-N
[62] = test system: BT-549 breast
[63] = test system: T-47D breast
[64] = test system: HS 578T breast
[65] = test system: NCI/ADR-RES ovarian
[66] = test system: MCF7 breast
[67] = test system: DU-145 prostate
[68] = test system: PC-3 prostate
[69] = test system: MDA-MB-231 breast

N#CC1CC2(CCN1C(=O)c1ccccc1)OCCO2 (stereo not drawn)
TGI [1]: > 100 µM | TGI [2]: > 100 µM | TGI [3]: > 100 µM | TGI [4]: > 100 µM | TGI [5]: > 100 µM | TGI [6]: > 100 µM | TGI [7]: > 100 µM | TGI [8]: > 100 µM | TGI [9]: > 100 µM | TGI [10]: > 100 µM | TGI [11]: > 100 µM | TGI [12]: > 100 µM | TGI [13]: > 100 µM | TGI [14]: > 100 µM | TGI [15]: > 100 µM | TGI [16]: > 100 µM | TGI [17]: > 100 µM | TGI [18]: > 100 µM | TGI [19]: > 100 µM | TGI [20]: > 100 µM | TGI [21]: > 100 µM | TGI [22]: 78.2 µM | TGI [23]: > 100 µM | TGI [24]: > 100 µM | TGI [25]: > 100 µM | TGI [26]: > 100 µM | TGI [27]: > 100 µM | TGI [28]: > 100 µM | TGI [29]: > 100 µM | TGI [30]: > 100 µM | TGI [31]: > 100 µM | TGI [32]: > 100 µM | TGI [33]: > 100 µM | TGI [34]: > 100 µM | TGI [35]: > 100 µM | TGI [36]: > 100 µM | TGI [37]: > 100 µM | TGI [38]: > 100 µM | TGI [39]: > 100 µM | TGI [40]: > 100 µM | TGI [41]: > 100 µM | TGI [42]: > 100 µM | TGI [43]: > 100 µM | TGI [44]: > 100 µM | TGI [45]: > 100 µM | TGI [46]: > 100 µM | TGI [47]: > 100 µM | TGI [48]: > 100 µM | TGI [49]: > 100 µM | TGI [50]: > 100 µM | TGI [51]: > 100 µM | TGI [52]: > 100 µM | TGI [53]: > 100 µM | TGI [54]: > 100 µM | TGI [55]: > 100 µM | TGI [56]: > 100 µM

O=C(NC12CC3CC(CC(C3)C1)C2)C(=O)c1c[nH]c2ccccc12
TGI [1]: 28.5 µM | TGI [2]: 36.2 µM | TGI [3]: 25.7 µM | TGI [4]: 28.3 µM | TGI [6]: 48.7 µM | TGI [57]: 25.8 µM | TGI [7]: 29.3 µM | TGI [8]: 32.1 µM | TGI [9]: 19.7 µM | TGI [10]: 28.8 µM | TGI [12]: 43.2 µM | TGI [13]: 32.3 µM | TGI [14]: 73.6 µM | TGI [17]: 26.5 µM | TGI [18]: 25.9 µM | TGI [19]: 30.5 µM | TGI [58]: 30.3 µM | TGI [21]: 30.4 µM | TGI [22]: 31.7 µM | TGI [23]: 36.6 µM | TGI [24]: 55.3 µM | TGI [25]: 28 µM | TGI [27]: 25.7 µM | TGI [28]: 32.3 µM | TGI [29]: 44.5 µM | TGI [30]: 22.4 µM | TGI [31]: 29.6 µM | TGI [32]: 30.4 µM | TGI [33]: 26.5 µM | TGI [34]: 30.2 µM | TGI [35]: 40.3 µM | TGI [36]: 29.6 µM | TGI [38]: 29.5 µM | TGI [39]: 30.4 µM | TGI [40]: 24.4 µM | TGI [41]: 29.3 µM | TGI [42]: 33.5 µM | TGI [44]: 36 µM | TGI [45]: 36.7 µM | TGI [46]: 31.4 µM | TGI [47]: 25.8 µM | TGI [48]: 15 µM | TGI [50]: 28.8 µM | TGI [51]: 32.2 µM | TGI [53]: 52.8 µM | TGI [54]: 26.7 µM | TGI [55]: 26.7 µM | TGI [56]: 31 µM

COc1ccc(OCC(=O)O)c(C(=O)CCC(=O)O)c1
TGI [1]: > 100 µM | TGI [2]: > 100 µM | TGI [3]: > 100 µM | TGI [4]: > 100 µM | TGI [5]: > 100 µM | TGI [6]: > 100 µM | TGI [57]: > 100 µM | TGI [7]: > 10 µM | TGI [8]: > 100 µM | TGI [10]: > 100 µM | TGI [12]: > 100 µM | TGI [13]: > 100 µM | TGI [14]: > 100 µM | TGI [59]: > 100 µM | TGI [15]: > 100 µM | TGI [16]: > 100 µM | TGI [17]: > 100 µM | TGI [18]: > 100 µM | TGI [19]: > 100 µM | TGI [20]: > 100 µM | TGI [58]: > 100 µM | TGI [21]: > 100 µM | TGI [22]: > 100 µM | TGI [23]: > 100 µM | TGI [24]: > 100 µM | TGI [25]: > 100 µM | TGI [26]: > 100 µM | TGI [27]: > 100 µM | TGI [28]: > 100 µM | TGI [29]: > 100 µM | TGI [30]: > 100 µM | TGI [31]: > 100 µM | TGI [32]: > 100 µM | TGI [33]: > 10 µM | TGI [34]: > 100 µM | TGI [35]: > 100 µM | TGI [36]: > 100 µM | TGI [38]: > 100 µM | TGI [39]: > 100 µM | TGI [40]: > 100 µM | TGI [41]: > 100 µM | TGI [42]: > 100 µM | TGI [43]: > 100 µM | TGI [44]: > 100 µM | TGI [45]: > 10 µM | TGI [46]: > 100 µM | TGI [47]: > 100 µM | TGI [48]: > 100 µM | TGI [49]: > 100 µM | TGI [50]: > 100 µM | TGI [51]: > 100 µM | TGI [52]: > 100 µM | TGI [53]: > 100 µM | TGI [54]: > 100 µM | TGI [55]: > 100 µM | TGI [56]: > 10 µM

CC(C)CC(NC(=O)OC(C)(C)C)C(=O)Nc1ccc(Nc2nc(F)nc(-c3c4ccccc4cn3C)n2)cc1 (stereo not drawn)
TGI [60]: > 100 µM | TGI [1]: 42.3 µM | TGI [61]: > 100 µM | TGI [2]: > 100 µM | TGI [3]: > 100 µM | TGI [4]: > 100 µM | TGI [5]: > 58 µM | TGI [6]: > 74.1 µM | TGI [57]: > 100 µM | TGI [7]: > 100 µM | TGI [8]: > 100 µM | TGI [9]: > 100 µM | TGI [10]: > 100 µM | TGI [11]: > 100 µM | TGI [12]: > 100 µM | TGI [13]: > 100 µM | TGI [14]: > 100 µM | TGI [15]: > 100 µM | TGI [16]: > 100 µM | TGI [17]: > 100 µM | TGI [18]: > 100 µM | TGI [62]: > 100 µM | TGI [19]: > 100 µM | TGI [20]: > 100 µM | TGI [58]: > 100 µM | TGI [21]: > 100 µM | TGI [22]: > 100 µM | TGI [23]: > 100 µM | TGI [24]: 22.4 µM | TGI [25]: 40.2 µM | TGI [26]: > 100 µM | TGI [27]: > 100 µM | TGI [28]: > 100 µM | TGI [29]: > 100 µM | TGI [30]: > 100 µM | TGI [31]: > 100 µM | TGI [32]: > 100 µM | TGI [63]: > 100 µM | TGI [33]: > 100 µM | TGI [34]: > 100 µM | TGI [35]: > 68 µM | TGI [36]: > 100 µM | TGI [37]: > 100 µM | TGI [38]: > 100 µM | TGI [39]: > 100 µM | TGI [40]: > 100 µM | TGI [41]: > 100 µM | TGI [64]: > 100 µM | TGI [42]: 49.3 µM | TGI [43]: > 54.4 µM | TGI [44]: > 72.4 µM | TGI [65]: > 100 µM | TGI [66]: 31.4 µM | TGI [45]: 42.6 µM | TGI [46]: > 100 µM | TGI [47]: > 100 µM | TGI [48]: 54.9 µM | TGI [49]: > 87.1 µM | TGI [50]: > 100 µM | TGI [51]: > 81.1 µM | TGI [52]: > 100 µM | TGI [53]: 33 µM | TGI [67]: 39.7 µM | TGI [54]: > 100 µM | TGI [68]: > 100 µM | TGI [55]: > 46.4 µM | TGI [56]: 63 µM | TGI [69]: > 100 µM
